Here are results for 1 substance from patent US20240133870A1, “COMBINED TREATMENT FOR CANCER” (Yeda Research and Development Co. Ltd., priority 2021, published 2024).

In test [1] the test system is human NSCLC tumor biopsy. Put plainly: EVOC of NSCLC patient biopsies, viability. The format is cell-based. From the text: Error bars represent standard error. […] Scale bar represents 50 μm. […] Error bars represent standard error. […] Scale bar represents 50 μm.
Scale bar represents 50 μm. […] Scale bar represents 50 μm. […] Scale bar represents 50 μm.

In test [2] the test system is pERK in UACC62 xenograft tumors. Put plainly: EVOC of xenograft tumors in various tissues, pERK immunohistochemistry. The following applies: skin tumors; AZD4547 2 μM added to vemurafenib 4 μM. Format: cell-based, human. Here is the method: (§1) SK-MEL-5 BRAF (V600E) melanoma cells were co-cultured with the lung-derived stromal cell line WI-38 or with the bone marrow-derived stromal cell line HS-5 with or without vemurafenib (4 μM). […] Vehicle—DMSO, EGFRi—gefitinib (0.1 μM), EGFRi/HER2i—lapatinib (10 nM), METi—crizotinib (0.1 μM), FGFRi—AZD4547 (50 nM), NFkB/TNFRi—CAPE (10 μM), TGFBRi-LY2109761 (0.5 μM), gp130i—SC144 (1 nM). P-values were calculated by two-sided t-test. *** P<0.001. Error bars represent standard error. […] P-values were calculated by two-sided t-test. *** P<0.001. Error bars represent standard error. […] Human BRAF (V600E) melanoma cell lines UACC62 or G361 were used to generate xenograft tumor models in various tissues of nude mice. When tumors reached a volume of 500-700 μmm^3, they were resected, sliced, and cultured ex-vivo in the presence of different drug combinations or DMSO control. Following 4 days of drug treatment, slices were fixed, embedded in paraffin blocks, and subjected to immunohistochemistry, using anti-pERK antibody, or to immuno-fluorescence, using anti-pFGFR1 antibody. BRAFi (vemurafenib, 4 μM), FGFRi (AZD4547, 2 μM). […]
(§2) For the ex-vivo experiments EVOCs from immunocompromised mice bearing human tumors were generated, as further described hereinbelow. For the in-vivo validation experiments, mice bearing subcutaneous tumors were used; and response was measured by evaluating tumor volume. […]
On the technique in general: Xenograft models place foreign cells or tissue in a host animal.

Test [3] deals with pERK in G361 xenograft tumors. The test is described as above. The following applies: co-treatment with vemurafenib 4 μM and AZD4547 2 μM. Format: cell-based, human. Here is the method: as §1, §2

Turning to AZD4547, the “response, cancer cell viability” value in test [1] (patient refractory to osimertinib, osimertinib 4 μM with AZD4547 2 μM) was “improved response as compared to osimertinib alone”. For the same substance, the cancer cells viability entry in test [1] (treatment-naïve patient, AZD4547 0.2 μM added to gefitinib 1.6 μM) is given as “significantly reduced cancer cells viability”. In addition, in test [1] (treatment-naïve patient, in combination with osimertinib 4 μM), the cancer cell viability result was “did not affect cancer cell viability”. In addition, the pERK inhibition result in test [2] is “near complete inhibition of pERK”. In addition, the pERK downregulation result in test [3] is reported as “sufficient to downregulate pERK in all of the different tumor locations”.
